Experimental data: US8552041B2, “Therapeutic approaches for treating alzheimer disease and related disorders through a modulation of cell stress response” (Pharnext, priority 2008, dated 2013)

B1: BDNF: Brain-derived neurotrophic factor, positive (neuroprotective) control (protein, UniProt P23560 19-247, looked up)
Neurotrophic factor BDNF …: APMKEANIRGQGGLAYPGVRTHGTLESVNGPKAGSRGLTSLADTFEHVIEELLDEDQKVRPNEENNKDADLYTSRVMLSSQVPLEPPLLFLLEEYKNYLDAANMSMRVRRHSDPARRGELSVCDSISEWVTAADKKTAVDMSGGTVTVLEKVPVSKGQLKQYFYETKCNPMGYTKEGCRGIDKRHWNSQCRTTQSYVRALTMDSKKRIGWRFIRIDTSCVCTLTIKRGR

Experiments:
[1] = system: rat primary cortical neuron culture; experiment: LDH release in Aβ25-35 intoxicated rat primary cortical neuron culture; format: cell-based; conditions: Aβ25-35 20 μM, 2 days; drug pre-incubated 1 h; FIG. 2
Experimental: Primary rat cortical neurons are cultured as described by Singer et al., 1999. Briefly pregnant female rats of 15 days gestation are killed by cervical dislocation (Rats Wistar; Janvier) and the foetuses removed from the uterus. The cortex are removed and placed in ice-cold medium of Leibovitz (L15; Invitrogen) containing 1% of Penicillin-Streptomycin (PS; Invitrogen) and 1% of bovine serum albumin (BSA; Sigma). Cortex are dissociated by trypsinisation for 20 min at 37° C. (Trypsin EDTA 1×; Invitrogen) diluted in PBS without calcium and magnesium. The reaction is stopped by the addition of Dulbecco's modified Eagle's medium (DMEM; Invitrogen) containing DNAase I grade II (0.1 mg/ml; Roche Diagnostic) and 10% of foetal calf serum (FCS; Invitrogen). Cells are then mechanically dissociated by 3 passages through a 10 ml pipette. Cells are then centrifuged at 180×g for 10 min at 10° C. The supernatant is discarded and the cells of pellet are re-suspended in a defined culture medium consisting of Neurobasal (Invitrogen) supplemented with B27 (2%; Invitrogen), L-glutamine (0.2 mM; Invitrogen), 1% of PS solution and 10 ng/ml of Brain-derived neurotrophic factor (BDNF, Pan Biotech). Viable cells are counted in a Neubauer cytometer using the trypan blue exclusion test. Cells are seeded at a density of 30 000 cells/well in 96 well-plates (wells are pre-coated with poly-L-lysine (10 ng/ml; Sigma)) and are cultured at 37° C. in a humidified air (95%)/CO2 (5%) atmosphere.
After 6 days of culture, cells are incubated with drugs (5 concentrations). After 1 hour, cells are intoxicated by 20 μM of β-amyloid (25-35; Sigma) in defined medium without BDNF but together with drugs. Cortical neurons are intoxicated for 2 days. BDNF (10 ng/ml) is used as a positive (neuroprotective) control.
After 2 days of culture, the supernatant is collected and analyzed with Cytotoxicity Detection Kit (LDH, Roche Applied Sciences). This colorimetric assay for the quantification of cell death is based on the measurement of lactate dehydrogenase (LDH) activity released from the cytosol of damaged cells into the supernatant. The optic density (DO) is assessed by spectrophotometer at 492 nm wavelength by a multiscan apparatus (Thermo, Ref Ascent). Results are expressed in percentage of cell viability, compared to the negative control (vehicle).
Results presented in FIGS. 1 and 2 are extracted from two independent cultures, 6 wells per condition. All values are expressed as mean±s.e.mean. A bilateral Student's t test analysis is performed on raw data. […]
Rat primary cortical neurons are incubated with drugs one hour before Aβ25-35 20 μM intoxication that lasts 2 days. Two days after this incubation, LDH release in the culture medium is quantified, reflecting the level of cell death.

[2] = system: Human Brain Microvascular Endothelial Cells (HBMEC); experiment: Capillary network length in human Aβ1-42 intoxicated HBMEC on matrigel; format: cell-based; conditions: for Effect on intoxication, total length of capillary network in beta-amyloid intoxicated HBMEC cultures: Aβ1-42 2.5 μM, combination versus each drug alone at the same concentrations, FIGS. 5 and 6
Experimental: Human brain microvascular endothelial cerebral cells (HBMEC, ScienCell Ref: 1000, frozen at passage 10) were rapidly thawed in a waterbath at +37° C. The supernatant was immediately put in 9 ml Dulbecco's modified Eagle's medium (DMEM; Pan Biotech ref: P04-03600) containing 10% of foetal calf serum (FCS; GIBCO ref 10270-106). Cell suspension was centrifuged at 180×g for 10 min at +4° C. and the pellets were suspended in CSC serum-free medium (CSC serum free, Cell System, Ref: SF-4Z0-500-R, Batch 51407-4) with 1.6% of Serum free RocketFuel (Cell System, Ref: SF-4Z0-500-R, Batch 54102), 2% of Penicillin 10.000 U/ml and Streptomycin 10 mg/ml (PS; Pan Biotech ref: P06-07100 batch 133080808) and were seeded at the density of 20 000 cells per well in 96 well-plates (matrigel layer biocoat angiogenesis system, BD, Ref 354150, Batch A8662) in a final volume of 100 μl. On matrigel support, endothelial cerebral cells spontaneously started the process of capillary network morphogenesis (54).
Three separate cultures were performed per condition, 6 wells per condition.
Briefly, Aβ1-42 peptide (Bachem, ref: H1368 batch 1010533) was reconstituted in define culture medium at 20 μM (mother solution) and was slowly shacked at +37° C. for 3 days in. The control medium was prepared in the same conditions.
After 3 days, this human amyloid peptide was used on HBMEC at 2.5 μM diluted in control medium (optimal incubation time). The Aβ1-42 peptide was added 2 hours after HBMEC seeding on matrigel for 18 hours incubation.
One hour after HBMEC seeding on matrigel, test compounds and VEGF-165 were solved in culture medium (+0.1% DMSO) and then pre-incubated with HBMEC for 1 hour before the Aβ1-42 application (in a final volume per culture well of 100 μl).
VEGF-165, known to be a pro-angiogenic isoform of VEGF-A, was used for all experiments in this study as reference compound.
The following conditions were assessed: • Negative Control: medium alone+0.1% DMSO • Intoxication: amyloid-β1-42 (2.5 μM) for 18 h • Positive control: VEGF-165 (10 nM) (1 reference compound/culture) 1 hr before the Aβ1-42 (2.5 μM) addition for a 18 h incubation time. • Test compounds: Test compound I hr before the Aβ1-42 (2.5 μM) addition for a 18 h incubation time. Capillary Network Quantification
Per well, 2 pictures with 4× lens were taken using InCell Analyzer™ 1000 (GE Healthcare) in light transmission. All images were taken in the same conditions. Analysis of the angiogenesis networks was done using Developer software (GE Healthcare). The total length of capillary network was assessed.
All values are expressed as mean±s.e.mean of the 3 cultures (n=6 per condition). […] Indeed, the amyloid toxicity was taken as the 100% and the test compound effect was calculated as a % of this amyloid toxicity. […]

NGF-differentiated PC12 = experiment: MTT viability of NGF-differentiated PC12 cells after Abeta25-35 intoxication; format: cell-based, Rat; conditions: Abeta25-35 10 μM, 24 h; drug pre-incubated 1 h; FIG. 1
Experimental: PC12 (Pheochromocytoma Rat, ATCC ref: CRL-1721) cells from [NT] CRL-1721) were rapidly thawed in 37° C. water. The supernatant was immediately put in 9 ml of a “PC12 proliferation medium” containing Dulbecco's modified Eagle's medium DMEM-F12 (Pan Biotech ref: P04-41450) with 15% heat-inactivated horse serum (Invitrogen ref: 16050-130), 2.5% of fetal bovine serum (FBS; Invitrogen ref: 16000-036), 1% of Penicillin 10.000 U/ml and Streptomycin 10 mg/ml (PS; Pan Biotech ref: P06-07100) and 1% de L-glutamine 200 mM (Pan Biotech ref: P04-80100). Cells were centrifuged (800 rounds/min, 4° C. for 5 min) and added in 5 ml “PC12 proliferation medium”, viable cells were counted with a Malassez cell using the neutral red exclusion test (Sigma). Then the cells were seeded at 3·10^4 cells per cm^2 in “PC12 proliferation medium” in 75 cm^2 plastic flasks (Greiner Ref: 658175) precoated with poly-L-lysine (10 μg/ml, Sigma Ref: P2636). Medium was changed every other day. After 3 days of culture, when cells reached 80% of confluence, they were washed in HBSS without calcium and magnesium (Pan Biotech Ref: P06-33500) and incubated in trypsin EDTA, (0.05%, Pan Biotech Ref: P10-023100). The enzymatic reaction was stopped with PC12 proliferation medium added by 0.5 mg/ml of DNAse 1 grade 2 (Pan Biotech Ref: T60-37780100). […]

[3] = system: rat primary cortical neuron cells; experiment: LDH release in human Aβ1-42 intoxicated rat primary cortical neuron culture; format: cell-based; conditions: human Aβ1-42 10 μM, 24 h; 1 hr pre-treatment; FIG. 4
Experimental: Primary rat cortical neurons are cultured as described previously.
The control medium was prepared in the same conditions.
Cortical neurons were intoxicated for 24 hours. Three separate cultures were performed per condition, 6 wells per condition.
This colorimetric assay for the quantification of cell toxicity is based on the measurement of lactate dehydrogenase (LDH) activity released from the cytosol of dying cells into the supernatant.
All values are expressed as mean±s.e.mean of the 3 cultures (n=6 per condition).

Molecule | Prevention of Aβ25-35 intoxication, LDH release in rat primary cortical neurons [1] | Effect on intoxication, total length of capillary network in beta-amyloid intoxicated HBMEC cultures [2] | also measured
Cc1oncc1C(=O)Nc1ccc(C(F)(F)F)cc1 [Leflunomide] | significantly prevented | – | –
C[C@@H]1CC(=O)NN=C1c1ccc(NN=C(C#N)C#N)cc1 [Levosimendan] | – | no significant effect | –
CCCNC(C)C(=O)Nc1ccccc1C (centres unmarked) [Prilocaln, Prilocaine] | – | – | Prevention of Abeta25-35 intoxication, viability of NGF-differentiated PC12 (MTT) (NGF-differentiated PC12): significantly prevented
Cc1noc(NS(=O)(=O)c2ccc(N)cc2)c1C [Sulfisoxazole] | significantly prevented | no significant effect | Prevention of human Aβ1-42 injury in HBMEC (capillary network), single drug ([2]; human Aβ1-42 2.5 μM, 18 h, 1 hr pre-treatment, FIG. 3B): significantly prevented
CN1CC(=O)N2[C@H](c3ccc4c(c3)OCO4)c3[nH]c4ccccc4c3C[C@@H]2C1=O [Tadalafil] | – | – | LDH release compared to amyloid intoxication [3]: −57%
CN(C/C=C/C#CC(C)(C)C)Cc1cccc2ccccc12 [Terbinafine] | – | no significant effect | –
NS(=O)(=O)Cc1noc2ccccc12 [Zonisamide] | significantly prevented | – | –
B1 | efficiently prevented | – | LDH release compared to amyloid intoxication [3]: −95%
